# Reference: DBAASP
# Legend:
# Assay in all cases: ≥ marks a high value that may be exact or a test limit, other limits are often not marked, values filed in µg/mL are converted to µM
# [1] = test system: Escherichia coli ATCC 25922
# [2] = test system: Pseudomonas aeruginosa ATCC 27853
# Escherichia coli = test system: Escherichia coli
# Staphylococcus aureus = test system: Staphylococcus aureus
# [3] = test system: Staphylococcus aureus ATCC 25923
Structure (SMILES),MIC [1] [µM],MIC [2] [µM],MIC (Escherichia coli) [µM],MIC (Staphylococcus aureus) [µM],MIC [3] [µM]
CC(C)C[C@H](NC(=O)[C@H](CCC(N)=O)NC(=O)[C@H](CCCCN)NC(=O)[C@H](CCCN=C(N)N)NC(=O)[C@H](Cc1ccccc1)NC(=O)[C@H](C)N)C(=O)N[C@@H](CCCCN)C(=O)N[C@@H](Cc1c[nH]c2ccccc12)C(=O)O [AFRKQLKW],3.72,,,,
CC[C@H](C)[C@H](NC(=O)[C@H](CO)NC(=O)[C@H](Cc1ccccc1)NC(=O)[C@H](CC(C)C)NC(=O)[C@H](C)N)C(=O)N[C@@H](CC(C)C)C(=O)N[C@@H](CCCN=C(N)N)C(=O)NCC(=O)N[C@@H](CC(C)C)C(=O)N[C@@H](CCCCN)C(=O)N[C@@H](CCCCN)C(=O)N[C@@H](CC(C)C)C(=O)NCC(=O)N[C@@H](CC(N)=O)C(=O)N[C@@H](CCSC)C(=O)NCC(=O)N[C@@H](CCC(N)=O)C(=O)N[C@@H](C)C(=O)N[C@@H](Cc1ccccc1)C(=O)N[C@H](C(=O)N[C@@H](CC(N)=O)C(=O)N[C@H]1CSSC[C@@H](C(=O)O)NC(=O)[C@H](CCCCN)NC(=O)[C@H](CCCCN)NC(=O)[C@H](Cc2ccc(O)cc2)NC(=O)[C@H]([C@@H](C)CC)NC(=O)[C@H](CCCCN)NC1=O)C(C)C [ALFSILRGLKKLGNMGQAFVNCKIYKKC],8,,,,
CC[C@H](C)[C@H](NC(=O)[C@H](CCCCN)NC(=O)[C@@H](N)Cc1ccccc1)C(=O)N[C@@H](CCCCN)C(=O)N[C@@H](C)C(=O)N[C@@H](CO)C(=O)N[C@@H](CCCCN)C(=O)N[C@@H](CCCCN)C(=O)N[C@@H](CC(C)C)C(=O)N[C@@H](CC(C)C)C(=O)N[C@@H](CCCCN)C(=O)N[C@@H](CCCCN)C(=O)N[C@H](C(=O)NCC(=O)N[C@@H](CCCCN)C(=O)NCC(=O)N[C@@H](C)C(=O)N[C@@H](CC(C)C)C(=O)NCC(=O)N[C@@H](C)C(=O)N[C@H](C(=O)N[C@@H](C)C(=O)N[C@@H](CCCCN)C(=O)N[C@@H](C)C(=O)N[C@@H](CC(C)C)C(=O)N[C@@H](C)C(=O)N[C@@H](CCC(N)=O)C(=O)N[C@@H](CCC(N)=O)C(=O)N[C@@H](C)C(=O)O)C(C)C)C(C)C [FKIKASKKLLKKVGKGALGAVAKALAQQA],,0.5,,,
CC[C@H](C)[C@H](NC(=O)CN)C(=O)NCC(=O)N[C@@H](CCCCN)C(=O)N[C@@H](Cc1ccccc1)C(=O)N[C@@H](CC(C)C)C(=O)N[C@@H](Cc1cnc[nH]1)C(=O)N[C@@H](CO)C(=O)N[C@@H](C)C(=O)N[C@@H](CCCCN)C(=O)N[C@@H](CCCCN)C(=O)N[C@@H](Cc1ccccc1)C(=O)NCC(=O)N[C@@H](CCCCN)C(=O)N[C@@H](C)C(=O)N[C@@H](Cc1ccccc1)C(=O)N[C@H](C(=O)NCC(=O)N[C@@H](CCC(=O)O)C(=O)N[C@H](C(=O)N[C@@H](CCSC)C(=O)N[C@@H](CC(N)=O)C(=O)N[C@@H](CO)C(=O)NCC(=O)NCC(=O)N[C@@H](CS)C(N)=O)[C@@H](C)CC)C(C)C [GIGKFLHSAKKFGKAFVGEIMNSGGC],3.1,,,,
CC[C@H](C)[C@H](NC(=O)CN)C(=O)N[C@@H](CCSC)C(=O)N[C@@H](CC(=O)O)C(=O)N[C@@H](CO)C(=O)N[C@H](C(=O)N[C@@H](CCCCN)C(=O)N[C@@H](CC(N)=O)C(=O)N[C@H](C(=O)N[C@@H](C)C(=O)N[C@@H](CCCCN)C(=O)N[C@@H](CC(N)=O)C(=O)N[C@H](C(=O)N[C@@H](C)C(=O)NCC(=O)N[C@@H](CCC(N)=O)C(=O)N[C@@H](CC(C)C)C(=O)N[C@@H](CC(C)C)C(=O)N[C@@H](CC(=O)O)C(=O)N[C@@H](CCCCN)C(=O)N[C@@H](CC(C)C)C(=O)N[C@@H](CCCCN)C(=O)N[C@H]1CSSC[C@@H](C(=O)O)NC(=O)CNC(=O)[C@H]([C@@H](C)O)NC(=O)[C@H]([C@@H](C)CC)NC(=O)[C@H](CCCCN)NC1=O)[C@@H](C)CC)C(C)C)C(C)C [GIMDSVKNVAKNIAGQLLDKLKCKITGC],16,,,,
CSCC[C@H](NC(=O)CNC(=O)[C@H](C)NC(=O)[C@H](CCCCN)NC(=O)[C@H](C)NC(=O)[C@H](Cc1ccccc1)NC(=O)[C@H](CCCCN)NC(=O)[C@H](CCCCN)NC(=O)[C@H](CC(C)C)NC(=O)[C@@H](NC(=O)[C@H](CC(=O)O)NC(=O)[C@H](CC(C)C)NC(=O)[C@H](Cc1ccccc1)NC(=O)[C@H](CC(C)C)NC(=O)CN)[C@@H](C)O)C(=O)N[C@@H](CCC(=O)O)C(=O)N[C@@H](C)C(=O)N[C@H](C(=O)N[C@H](C(=O)N[C@@H](CC(N)=O)C(=O)N1CCC[C@H]1C(=O)N[C@@H](CCCCN)C(=O)O)[C@@H](C)O)C(C)C [GLFLDTLKKFAKAGMEAVTNPK],,,80,80,
CC(C)C[C@H](NC(=O)CN)C(=O)N[C@@H](CC(C)C)C(=O)N[C@@H](CCCCN)C(=O)N[C@@H](CCCN=C(N)N)C(N)=O [GLLKR],> 52.9,,,,> 52.9
CC[C@H](C)[C@H](NC(=O)[C@H](CCCN=C(N)N)NC(=O)[C@@H](NC(=O)[C@H](CC(C)C)NC(=O)[C@H](CC(C)C)NC(=O)CN)[C@@H](C)O)C(=O)N[C@@H](CCCCN)C(=O)N[C@H](C(=O)N[C@@H](CC(C)C)C(=O)N[C@@H](CC(C)C)C(N)=O)[C@@H](C)O [GLLTRIKTLL],200,,,,
CC[C@H](C)[C@H](NC(=O)[C@H](CC(=O)O)NC(=O)[C@@H](NC(=O)[C@@H](NC(=O)CN)C(C)C)C(C)C)C(=O)N[C@@H](CC(C)C)C(=O)N[C@@H](CCCCN)C(=O)NCC(=O)N[C@@H](C)C(=O)N[C@@H](C)C(=O)N[C@@H](CCCCN)C(=O)N[C@@H](CC(=O)O)C(=O)N[C@@H](CC(C)C)C(=O)N[C@@H](C)C(=O)NCC(=O)N[C@@H](Cc1cnc[nH]1)C(=O)O [GVVDILKGAAKDLAGH],79.9,,,,20
C[C@H](NC(=O)[C@H](C)NC(=O)[C@H](CCCCN)NC(=O)[C@H](CCCCN)NC(=O)[C@H](C)NC(=O)[C@H](C)NC(=O)[C@H](CCCCN)NC(=O)[C@H](C)NC(=O)[C@H](C)NC(=O)[C@H](CCCCN)NC(=O)[C@H](CCCCN)NC(=O)[C@H](C)NC(=O)[C@H](C)NC(=O)[C@@H](N)CCCCN)C(N)=O [KAAKKAAKAAKKAA],47,,,,> 256
CC(C)C[C@H](NC(=O)[C@H](CCCCN)NC(=O)[C@H](CCCCN)NC(=O)[C@H](C)NC(=O)[C@H](CC(C)C)NC(=O)[C@@H](N)CCCCN)C(=O)N[C@@H](C)C(N)=O [KLAKKLA],> 100,> 100,,,> 100
CC(C)C[C@H](NC(=O)[C@H](CCCCN)NC(=O)CNC(=O)[C@H](CC(C)C)NC(=O)[C@H](CCCCN)NC(=O)[C@H](CCCCN)NC(=O)CNC(=O)[C@H](CC(C)C)NC(=O)[C@H](CCCCN)NC(=O)CNC(=O)[C@H](CC(C)C)NC(=O)[C@H](CCCCN)NC(=O)[C@H](CCCCN)NC(=O)CNC(=O)[C@H](CC(C)C)NC(=O)[C@@H](N)CCCCN)C(=O)NCC(=O)N[C@@H](CCCCN)C(=O)N[C@@H](CCCCN)C(=O)N[C@@H](CC(C)C)C(=O)NCC(N)=O [KLGKKLGKLGKKLGKLGKKLG],4,4,,,4
CC[C@H](C)[C@H](NC(=O)[C@H](Cc1c[nH]c2ccccc12)NC(=O)[C@H](CCCCN)NC(=O)[C@@H]1CCCN1C(=O)[C@H](CC(C)C)NC(=O)[C@@H](N)CCCCN)C(=O)N[C@H](C(=O)N[C@@H](CCCCN)C(=O)N[C@H](C(=O)N[C@H](C(=O)N[C@@H](CC(N)=O)C(=O)N[C@@H](CCCCN)C(=O)N[C@@H](Cc1ccccc1)C(=O)N[C@H](C(=O)N[C@@H](CCCCN)C(=O)N[C@@H](CCCCN)C(=O)O)[C@@H](C)O)C(C)C)[C@@H](C)O)[C@@H](C)CC [KLPKWIIKTVNKFTKK],,,3.3,,
CSCC[C@H](NC(=O)[C@H](CCCN=C(N)N)NC(=O)[C@H](Cc1c[nH]c2ccccc12)NC(=O)[C@H](C)NC(=O)[C@H](Cc1c[nH]c2ccccc12)NC(=O)[C@H](CCCN=C(N)N)NC(=O)[C@H](CCCN=C(N)N)NC(=O)[C@H](C)NC(=O)[C@H](CCCCN)NC(=O)[C@H](Cc1ccccc1)NC(=O)[C@H](Cc1c[nH]c2ccccc12)NC(=O)[C@H](C)NC(=O)[C@@H]1CCCN1)C(=O)N[C@@H](CC(C)C)C(=O)N[C@@H](CCCCN)C(=O)N[C@@H](CCCCN)C(=O)N[C@@H](C)C(=O)N[C@@H](C)C(=O)O [PAWFKARRWAWRMLKKAA],4.4,,,,2.2
NC(=O)[C@H](CCCN=C(N)N)NC(=O)[C@H](Cc1c[nH]c2ccccc12)NC(=O)[C@H](Cc1ccc(O)cc1)NC(=O)[C@H](CCCN=C(N)N)NC(=O)[C@H](Cc1c[nH]c2ccccc12)NC(=O)[C@H](Cc1c[nH]c2ccccc12)NC(=O)[C@@H](N)CCCN=C(N)N [RWWRYWR],8.28,16.6,,,2.07
CSCC[C@H](NC(=O)[C@H](CCCCN)NC(=O)[C@H](CCCCN)NC(=O)[C@H](CCCCN)NC(=O)[C@H](CCCN=C(N)N)NC(=O)[C@H](CCCN=C(N)N)NC(=O)[C@H](Cc1ccc(O)cc1)NC(=O)[C@@H](N)CCCN=C(N)N)C(=O)N[C@@H](CCCCN)C(=O)N[C@@H](CCCCN)C(=O)N[C@@H](C)C(=O)N[C@@H](CC(C)C)C(=O)N[C@@H](CCC(N)=O)C(=O)N[C@@H](Cc1ccc(O)cc1)C(N)=O [RYRRKKKMKKALQY],> 100,> 100,,,
CC(C)C[C@H](NC(=O)[C@H](Cc1ccccc1)NC(=O)[C@@H]1CCCN1C(=O)[C@H](Cc1c[nH]c2ccccc12)NC(=O)[C@H](C)NC(=O)[C@H](C)NC(=O)[C@@H]1CCCN1C(=O)[C@H](Cc1ccccc1)NC(=O)[C@H](CCCN=C(N)N)NC(=O)[C@H](CCCN=C(N)N)NC(=O)[C@@H](N)C(C)C)C(=O)N[C@@H](CCCN=C(N)N)C(=O)N[C@@H](CCCN=C(N)N)C(N)=O [VRRFPAAWPFLRR],90.5,,,,
CSCC[C@H](NC(=O)[C@H](CCCN=C(N)N)NC(=O)[C@H](Cc1c[nH]c2ccccc12)NC(=O)[C@H](C)NC(=O)[C@H](Cc1c[nH]c2ccccc12)NC(=O)[C@H](CCCN=C(N)N)NC(=O)[C@H](CCCN=C(N)N)NC(=O)[C@H](C)NC(=O)[C@H](CCCCN)NC(=O)[C@@H](N)Cc1ccc(O)cc1)C(=O)N[C@@H](CCCCN)C(=O)O [YKARRWAWRMK],32.2,129,,,32.2
